Laboratory results as given in the supplement of paper PMC5908809.

Legend:
Experiment in all cases: relative IC50 (inflection point of fitted viability curve, relative to fitted max inhibition); higher = less sensitive
Details in all cases: 72 h
[1] = tested on: normal primary NK cells, pool 3 (3 donors) (IL-2 2.5 ng/mL)
Protocol: (§1)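 Drug sensitivity and resistance testing: 5 concentrations over a 10,000-fold range, 72 h at 37 °C, viability by CellTiter-Glo normalised to DMSO and benzethonium chloride controls. IC50 is the inflection point of a logistic fit (min fixed at 0, max fitted), so it is relative to the fitted maximal inhibition. Kept only where fitted max inhibition is at least 50%.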

[2] = tested on: normal primary NK cells, pool 1 (3 donors), resting (IL-2 0 ng/mL)
Protocol: as §1

NKL (IL-2 2.5 ng/mL) = tested on: NKL (IL-2 2.5 ng/mL)
Protocol: as §1

IMC-1 (IL-2 20 ng/mL) = tested on: IMC-1 (IL-2 20 ng/mL)
Protocol: as §1

SNK-6 (IL-2 2.5 ng/mL) = tested on: SNK-6 (IL-2 2.5 ng/mL)
Protocol: as §1

NK-92 (IL-2 2.5 ng/mL) = tested on: NK-92 (IL-2 2.5 ng/mL)
Protocol: as §1

KAI3 (IL-2 2.5 ng/mL) = tested on: KAI3 (IL-2 2.5 ng/mL)
Protocol: as §1

KHYG-1 (IL-2 2.5 ng/mL) = tested on: KHYG-1 (IL-2 2.5 ng/mL)
Protocol: as §1

NK-YS (IL-2 2.5 ng/mL) = tested on: NK-YS (IL-2 2.5 ng/mL)
Protocol: as §1

DERL-7 (IL-2 2.5 ng/mL) = tested on: DERL-7 (IL-2 2.5 ng/mL)
Protocol: as §1

YT (IL-2 2.5 ng/mL) = tested on: YT (IL-2 2.5 ng/mL)
Protocol: as §1

[3] = tested on: normal primary NK cells, pool 1 (3 donors) (IL-2 2.5 ng/mL)
Protocol: as §1

COc1cc2c(N3CCN(C(=O)Nc4ccc(OC(C)C)cc4)CC3)ncnc2cc1OCCCN1CCCCC1 [Tandutinib]
relative IC50 [1]: > 1000 nM

Cn1nnc2c(C(N)=O)ncn2c1=O [Temozolomide]
relative IC50 [2]: > 100000 nM
relative IC50 (NKL (IL-2 2.5 ng/mL)): 25700 nM
relative IC50 (IMC-1 (IL-2 20 ng/mL)): 15800 nM
relative IC50 (SNK-6 (IL-2 2.5 ng/mL)): 1610 nM

Cc1cc(Nc2cc(N3CCN(C)CC3)nc(Sc3ccc(NC(=O)C4CC4)cc3)n2)n[nH]1 [Tozasertib]
relative IC50 (NK-92 (IL-2 2.5 ng/mL)): 636 nM
relative IC50 (KAI3 (IL-2 2.5 ng/mL)): 349 nM
relative IC50 (KHYG-1 (IL-2 2.5 ng/mL)): 193 nM
relative IC50 (NK-YS (IL-2 2.5 ng/mL)): 51 nM
relative IC50 (IMC-1 (IL-2 20 ng/mL)): 283 nM
relative IC50 (SNK-6 (IL-2 2.5 ng/mL)): 50.2 nM
relative IC50 (DERL-7 (IL-2 2.5 ng/mL)): 46.3 nM

CN1CCc2c(c3ccccc3n2Cc2ccc(C(=O)NO)cc2)C1 [Tubastatin A]
relative IC50 (NK-92 (IL-2 2.5 ng/mL)): 1580 nM
relative IC50 [2]: 1510 nM
relative IC50 (NKL (IL-2 2.5 ng/mL)): 1030 nM
relative IC50 (KAI3 (IL-2 2.5 ng/mL)): 1170 nM
relative IC50 (KHYG-1 (IL-2 2.5 ng/mL)): 2550 nM
relative IC50 (NK-YS (IL-2 2.5 ng/mL)): 1810 nM
relative IC50 (IMC-1 (IL-2 20 ng/mL)): 3270 nM
relative IC50 (YT (IL-2 2.5 ng/mL)): 2420 nM
relative IC50 (SNK-6 (IL-2 2.5 ng/mL)): 1430 nM
relative IC50 [3]: 1790 nM
relative IC50 (DERL-7 (IL-2 2.5 ng/mL)): 3400 nM

C[C@@H]1COC(Nc2ccc3ncnc(Nc4ccc(OCc5nccs5)c(Cl)c4)c3c2)=N1 [Varlitinib]
relative IC50 [2]: > 10000 nM

CCC1=C[C@@H]2CN(C1)Cc1c([nH]c3ccccc13)[C@@](C(=O)OC)(c1cc3c(cc1OC)N(C)[C@H]1[C@@](O)(C(=O)OC)[C@H](OC(C)=O)[C@]4(CC)C=CCN5CC[C@]31[C@@H]54)C2 [Vinorelbine]
relative IC50 (NK-92 (IL-2 2.5 ng/mL)): 23.2 nM
relative IC50 [2]: 1460 nM
relative IC50 (NKL (IL-2 2.5 ng/mL)): 3.89 nM
relative IC50 (KAI3 (IL-2 2.5 ng/mL)): 7.28 nM
relative IC50 (KHYG-1 (IL-2 2.5 ng/mL)): 8.26 nM
relative IC50 (NK-YS (IL-2 2.5 ng/mL)): 5.98 nM
relative IC50 (IMC-1 (IL-2 20 ng/mL)): 3.26 nM
relative IC50 (YT (IL-2 2.5 ng/mL)): 7.29 nM
relative IC50 (SNK-6 (IL-2 2.5 ng/mL)): 2.95 nM
relative IC50 (DERL-7 (IL-2 2.5 ng/mL)): 5.07 nM

CC[C@@H]1C(=O)N(C)c2cnc(Nc3ccc(C(=O)N[C@H]4CC[C@H](N5CCN(CC6CC6)CC5)CC4)cc3OC)nc2N1C(C)C [Volasertib]
relative IC50 (NK-92 (IL-2 2.5 ng/mL)): 12.6 nM
relative IC50 (NKL (IL-2 2.5 ng/mL)): 36.2 nM
relative IC50 (KAI3 (IL-2 2.5 ng/mL)): 26.5 nM
relative IC50 (KHYG-1 (IL-2 2.5 ng/mL)): 28.3 nM
relative IC50 (NK-YS (IL-2 2.5 ng/mL)): 24.3 nM
relative IC50 (IMC-1 (IL-2 20 ng/mL)): 30 nM
relative IC50 (YT (IL-2 2.5 ng/mL)): 29 nM
relative IC50 (SNK-6 (IL-2 2.5 ng/mL)): 6.44 nM
relative IC50 (DERL-7 (IL-2 2.5 ng/mL)): 19.6 nM
